Measurements from patent publication US20250367212A1, “PHARMACOTHERAPY FOR OBSESSIVE-COMPULSIVE DISORDER TARGETING DOPAMINE D1 SIGNAL IN STRIATAL STRIOSOMES” (priority 2022, published 2025).
Where two headings read alike, the source gives them in different places.

How the values were obtained:
[1] = test system: patients with blepharospasm; details: for neurological or neuropsychiatric changes during the drug challenge test: in vivo
[2] = test system: rodent model using fear conditioning; details: cited from earlier work
[3] = n=7 per group, 8 weeks, single drug

Row | SMILES | neurological or neuropsychiatric changes during the drug challenge test [1] | change in severity of blepharospasm, BSDI, before vs after drug challenge test [1, 3] | change in severity of blepharospasm, JRS, before vs after drug challenge test [1, 3] | change in severity of blepharospasm, VAS, before vs after drug challenge test [1, 3] | change in severity of blepharospasm, mVAS, before vs after drug challenge test [1, 3] | corrected VAS (mVAS), after the drug challenge test ([1]; L-DOPA group, n=7, DOPACOL 1 to 3 tablets/day over 8 weeks, before 141.3±8.7, P<0.05, severity significantly progressed) | fear memory ([2]; administration of D1 receptor agonist, Chen et al., Brain Research 2020) | fear memory ([2]; single injection of D2 receptor antagonist, Ponnusamy et al., Learning & Memory 2005)
1 | CN(C)CCCN1c2ccccc2Sc2ccc(Cl)cc21 [CPZ, chlorpromazine] | No apparent neurological or neuropsychiatric changes | No significant changes in severity | No significant changes in severity | No significant changes in severity | No significant changes in severity |  |  | 
2 | N[C@@H](Cc1ccc(O)c(O)c1)C(=O)O [L-DOPA, L-3,4-dihydroxyphenylalanine] | No apparent neurological or neuropsychiatric changes | no severity progressed | no severity progressed | no severity progressed |  | 178.8±24.3 |  | 
3 | Br.Cc1cccc(C2CN(C)CCc3c2cc(O)c(O)c3Cl)c1 (stereo not drawn) [SKF83959] |  |  |  |  |  |  | long-term loss of fear memory | 
4 | CCN1CCCC1CNC(=O)c1cc(S(N)(=O)=O)ccc1OC (stereo not drawn) [sulpiride] |  |  |  |  |  |  |  | effective in erasing fear memory
